{"source": "ChEMBL document CHEMBL1138106", "about": "“The discovery of a potent and selective lethal factor inhibitor for adjunct therapy of anthrax infection” (Bioorg Med Chem Lett, 2006)", "key": {"[1]": {"assay": "Clearance in Sprague-Dawley rat at 1 mg/kg, iv", "format": "ADME, organism-based", "parameters": "dose 1 mg/kg, route intravenous", "settings": "in vivo"}, "[2]": {"assay": "Cmax in BALB/c mice at 10 mg/kg, iv", "format": "ADME, organism-based", "parameters": "dose 10 mg/kg, route intravenous", "settings": "mouse, in vivo"}, "[3]": {"assay": "Half life in Guinea pig at 2 mg/kg, iv", "format": "ADME, organism-based, Cavia porcellus", "parameters": "dose 2 mg/kg, route intravenous", "settings": "in vivo"}, "[4]": {"assay": "Half life in Sprague-Dawley rat at 1 mg/kg, iv", "format": "ADME, organism-based", "parameters": "dose 1 mg/kg, route intravenous", "settings": "in vivo"}, "[5]": {"assay": "Bioavailability in BALB/c mice […], po", "format": "ADME, organism-based", "settings": "mouse, in vivo"}, "[6]": {"assay": "Bioavailability in rhesus monkey […], po", "format": "ADME, organism-based, Macaca mulatta", "settings": "in vivo"}, "[7]": {"assay": "Clearance in Dutch Belted rabbit at 2 mg/kg, iv", "format": "ADME, organism-based, Oryctolagus cuniculus", "parameters": "dose 2 mg/kg, route intravenous", "settings": "in vivo"}, "Lethal factor": {"target": "T1, Lethal factor (Bacillus anthracis, UniProt P15917)", "T1 sequence (P15917 whole entry)": "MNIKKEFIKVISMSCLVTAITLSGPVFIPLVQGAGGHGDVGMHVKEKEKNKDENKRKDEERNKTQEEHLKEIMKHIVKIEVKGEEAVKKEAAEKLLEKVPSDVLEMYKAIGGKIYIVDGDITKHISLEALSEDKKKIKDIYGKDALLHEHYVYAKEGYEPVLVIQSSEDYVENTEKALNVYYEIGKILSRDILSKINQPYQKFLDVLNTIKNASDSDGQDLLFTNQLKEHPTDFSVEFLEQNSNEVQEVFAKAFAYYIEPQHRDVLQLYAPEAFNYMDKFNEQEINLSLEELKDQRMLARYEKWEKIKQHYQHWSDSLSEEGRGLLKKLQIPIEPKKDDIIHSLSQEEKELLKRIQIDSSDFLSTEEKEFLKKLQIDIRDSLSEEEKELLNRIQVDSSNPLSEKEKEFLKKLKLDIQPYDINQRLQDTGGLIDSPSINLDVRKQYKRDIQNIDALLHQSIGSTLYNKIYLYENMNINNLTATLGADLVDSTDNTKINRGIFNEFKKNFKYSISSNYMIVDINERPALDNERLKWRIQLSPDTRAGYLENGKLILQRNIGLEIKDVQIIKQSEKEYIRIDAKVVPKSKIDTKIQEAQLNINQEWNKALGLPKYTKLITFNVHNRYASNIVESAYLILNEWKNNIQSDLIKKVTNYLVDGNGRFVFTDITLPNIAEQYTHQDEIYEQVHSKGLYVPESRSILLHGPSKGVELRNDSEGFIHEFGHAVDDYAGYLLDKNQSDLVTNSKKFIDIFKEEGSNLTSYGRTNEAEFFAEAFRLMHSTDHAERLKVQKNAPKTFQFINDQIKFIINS"}, "[8]": {"assay": "Tmax in Guinea pig at 2 mg/kg, iv", "format": "ADME, organism-based, Cavia porcellus", "parameters": "dose 2 mg/kg, route intravenous", "settings": "in vivo"}, "[9]": {"assay": "Clearance in Beagle dog at 1 mg/kg, iv", "format": "ADME, organism-based, Canis lupus familiaris", "parameters": "dose 1 mg/kg, route intravenous", "settings": "in vivo"}, "[10]": {"assay": "Volume of distribution in Guinea pig at 2 mg/kg, iv", "format": "ADME, organism-based, Cavia porcellus", "parameters": "dose 2 mg/kg, route intravenous", "settings": "in vivo, read-out: Vdss"}, "[11]": {"target": "Matrix metalloproteinase-14 (Homo sapiens, UniProt P50281)", "assay": "Inhibition of MMP14"}, "[12]": {"assay": "Cmax in rhesus monkey at 1 mg/kg, iv", "format": "ADME, organism-based, Macaca mulatta", "parameters": "dose 1 mg/kg, route intravenous", "settings": "in vivo"}, "[13]": {"assay": "Half life in Dutch Belted rabbit at 2 mg/kg, iv", "format": "ADME, organism-based, Oryctolagus cuniculus", "parameters": "dose 2 mg/kg, route intravenous", "settings": "in vivo"}, "[14]": {"assay": "Tmax in rhesus monkey at 1 mg/kg, iv", "format": "ADME, organism-based, Macaca mulatta", "parameters": "dose 1 mg/kg, route intravenous", "settings": "in vivo"}, "Neprilysin": {"target": "Neprilysin (Homo sapiens, UniProt P08473)", "sequence (P08473 whole entry)": "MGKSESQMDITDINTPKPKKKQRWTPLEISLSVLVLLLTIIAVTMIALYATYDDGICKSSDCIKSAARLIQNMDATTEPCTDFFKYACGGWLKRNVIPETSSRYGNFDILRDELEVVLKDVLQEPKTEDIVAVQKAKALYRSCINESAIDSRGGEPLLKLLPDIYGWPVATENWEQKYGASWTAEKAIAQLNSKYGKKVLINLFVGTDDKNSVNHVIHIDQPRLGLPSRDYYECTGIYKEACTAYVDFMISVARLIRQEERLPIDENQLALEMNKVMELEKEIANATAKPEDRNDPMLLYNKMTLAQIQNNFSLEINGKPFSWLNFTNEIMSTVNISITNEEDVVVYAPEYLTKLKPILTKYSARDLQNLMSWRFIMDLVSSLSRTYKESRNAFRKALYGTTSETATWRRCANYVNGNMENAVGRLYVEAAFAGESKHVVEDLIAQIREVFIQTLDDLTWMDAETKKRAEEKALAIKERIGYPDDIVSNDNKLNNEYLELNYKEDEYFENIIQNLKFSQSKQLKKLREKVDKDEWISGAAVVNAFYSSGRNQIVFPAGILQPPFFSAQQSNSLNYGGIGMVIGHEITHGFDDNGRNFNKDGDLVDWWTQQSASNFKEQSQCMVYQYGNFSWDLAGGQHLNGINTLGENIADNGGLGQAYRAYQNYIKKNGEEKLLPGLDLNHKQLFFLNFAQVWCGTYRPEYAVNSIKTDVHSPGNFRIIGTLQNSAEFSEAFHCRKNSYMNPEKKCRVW", "assay": "Inhibition of NEP"}, "[15]": {"assay": "Volume of distribution in Dutch Belted rabbit at 2 mg/kg, iv", "format": "ADME, organism-based, Oryctolagus cuniculus", "parameters": "dose 2 mg/kg, route intravenous", "settings": "in vivo, read-out: Vdss"}, "[16]": {"assay": "Clearance in New Zealand White rabbit at 5 mg/kg, iv", "format": "ADME, organism-based, Oryctolagus cuniculus", "parameters": "dose 5 mg/kg, route intravenous", "settings": "in vivo"}, "[17]": {"assay": "Half life in rhesus monkey at 1 mg/kg, iv", "format": "ADME, organism-based, Macaca mulatta", "parameters": "dose 1 mg/kg, route intravenous", "settings": "in vivo"}, "[18]": {"assay": "Solubility in water", "format": "physicochemical"}, "[19]": {"assay": "Half life in Beagle dog at 1 mg/kg, iv", "format": "ADME, organism-based, Canis lupus familiaris", "parameters": "dose 1 mg/kg, route intravenous", "settings": "in vivo"}, "[20]": {"assay": "Tmax in Beagle dog at 1 mg/kg, iv", "format": "ADME, organism-based, Canis lupus familiaris", "parameters": "dose 1 mg/kg, route intravenous", "settings": "in vivo"}, "[21]": {"assay": "Volume of distribution in rhesus monkey at 1 mg/kg, iv", "format": "ADME, organism-based, Macaca mulatta", "parameters": "dose 1 mg/kg, route intravenous", "settings": "in vivo, read-out: Vdss"}, "[22]": {"target": "Angiotensin-converting enzyme (Homo sapiens) (UniProt P12821)", "sequence (P12821 whole entry)": "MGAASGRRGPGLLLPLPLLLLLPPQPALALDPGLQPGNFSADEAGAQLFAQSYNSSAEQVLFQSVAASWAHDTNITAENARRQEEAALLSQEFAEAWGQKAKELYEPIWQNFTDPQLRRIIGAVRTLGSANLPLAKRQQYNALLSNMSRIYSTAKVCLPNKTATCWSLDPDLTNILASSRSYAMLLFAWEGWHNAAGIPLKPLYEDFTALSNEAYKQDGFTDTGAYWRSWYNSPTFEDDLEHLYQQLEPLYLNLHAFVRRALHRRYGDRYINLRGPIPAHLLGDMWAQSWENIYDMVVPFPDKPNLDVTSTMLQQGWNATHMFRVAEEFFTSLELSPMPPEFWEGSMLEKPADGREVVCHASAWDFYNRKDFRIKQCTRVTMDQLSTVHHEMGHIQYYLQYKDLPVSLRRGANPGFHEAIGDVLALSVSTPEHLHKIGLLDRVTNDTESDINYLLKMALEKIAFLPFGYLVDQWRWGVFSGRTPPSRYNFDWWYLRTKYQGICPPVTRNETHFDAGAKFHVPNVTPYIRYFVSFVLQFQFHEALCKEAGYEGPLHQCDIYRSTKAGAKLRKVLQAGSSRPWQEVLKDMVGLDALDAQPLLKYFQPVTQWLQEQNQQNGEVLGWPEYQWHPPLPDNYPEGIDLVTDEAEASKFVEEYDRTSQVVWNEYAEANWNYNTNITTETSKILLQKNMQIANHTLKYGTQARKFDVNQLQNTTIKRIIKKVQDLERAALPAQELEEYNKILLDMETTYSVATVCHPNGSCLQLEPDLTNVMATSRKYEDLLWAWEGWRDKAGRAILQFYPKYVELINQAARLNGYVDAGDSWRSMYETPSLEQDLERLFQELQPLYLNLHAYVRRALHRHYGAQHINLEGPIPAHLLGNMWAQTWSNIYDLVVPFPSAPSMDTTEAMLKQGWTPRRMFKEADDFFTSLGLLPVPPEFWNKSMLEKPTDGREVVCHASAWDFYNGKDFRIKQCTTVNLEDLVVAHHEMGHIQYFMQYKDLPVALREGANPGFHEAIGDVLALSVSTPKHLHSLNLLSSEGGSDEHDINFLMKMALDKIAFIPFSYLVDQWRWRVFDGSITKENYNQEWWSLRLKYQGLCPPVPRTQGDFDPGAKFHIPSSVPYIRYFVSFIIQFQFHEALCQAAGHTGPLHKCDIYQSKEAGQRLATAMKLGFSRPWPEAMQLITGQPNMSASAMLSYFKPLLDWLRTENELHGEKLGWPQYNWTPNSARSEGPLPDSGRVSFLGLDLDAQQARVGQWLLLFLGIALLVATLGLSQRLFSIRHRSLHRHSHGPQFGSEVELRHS", "assay": "Inhibition of ACE at 10 uM"}, "[23]": {"assay": "Tmax in Dutch Belted rabbit at 2 mg/kg, iv", "format": "ADME, organism-based, Oryctolagus cuniculus", "parameters": "dose 2 mg/kg, route intravenous", "settings": "in vivo"}, "[24]": {"assay": "Clearance in rhesus monkey at 1 mg/kg, iv", "format": "ADME, organism-based, Macaca mulatta", "parameters": "dose 1 mg/kg, route intravenous", "settings": "in vivo"}, "[25]": {"assay": "Cmax in Beagle dog at 1 mg/kg, iv", "format": "ADME, organism-based, Canis lupus familiaris", "parameters": "dose 1 mg/kg, route intravenous", "settings": "in vivo"}}}
{"smiles": "Cc1cc(S(=O)(=O)N[C@@H](C(=O)NO)C2CCOCC2)ccc1F", "values": [{"measurement": "clearance", "setting": "[1]", "result": 80, "unit": "mL/min/kg"}, {"measurement": "Cmax", "setting": "[2]", "result": 120, "unit": "nM"}, {"measurement": "half-life", "setting": "[3]", "result": 72, "unit": "min"}, {"measurement": "half-life", "setting": "[4]", "result": 84, "unit": "min"}, {"measurement": "bioavailability", "setting": "[5]", "result": 20, "unit": "%"}, {"measurement": "bioavailability", "setting": "[6]", "result": 16, "unit": "%"}, {"measurement": "clearance", "setting": "[7]", "result": 14, "unit": "mL/min/kg"}, {"measurement": "IC50", "setting": "Lethal factor", "result": 210, "unit": "nM"}, {"measurement": "Tmax", "setting": "[8]", "result": 48, "unit": "min"}, {"measurement": "clearance", "setting": "[9]", "result": 15, "unit": "mL/min/kg"}, {"measurement": "Vd", "setting": "[10]", "result": 1.1, "unit": "L/kg"}, {"measurement": "IC50", "setting": "[11]", "result": 6.5, "unit": "µM"}, {"measurement": "Cmax", "setting": "[12]", "result": 120, "unit": "nM"}, {"measurement": "half-life", "setting": "[13]", "result": 120, "unit": "min"}, {"measurement": "Tmax", "setting": "[14]", "result": 1.3, "unit": "h"}, {"measurement": "IC50", "setting": "Neprilysin", "result": 9.4, "unit": "µM"}, {"measurement": "Vd", "setting": "[15]", "result": 1.5, "unit": "L/kg"}, {"measurement": "clearance", "setting": "[16]", "result": 35, "unit": "mL/min/kg"}, {"measurement": "half-life", "setting": "[17]", "result": 144, "unit": "min"}, {"measurement": "solubility", "setting": "[18]", "result": 2500, "unit": "µg/mL"}, {"measurement": "half-life", "setting": "[19]", "result": 282, "unit": "min"}, {"measurement": "Tmax", "setting": "[20]", "result": 48, "unit": "min"}, {"measurement": "Vd", "setting": "[21]", "result": 3.3, "unit": "L/kg"}, {"measurement": "inhibition", "setting": "[22]", "result": "< 10", "unit": "%"}, {"measurement": "Tmax", "setting": "[23]", "result": 18, "unit": "min"}, {"measurement": "clearance", "setting": "[24]", "result": 23, "unit": "mL/min/kg"}, {"measurement": "Cmax", "setting": "[25]", "result": 730, "unit": "nM"}]}
